Assay in all cases: Growth inhibition (MTT) assay, with or without MDR modulators
Data set [1] has as its system MES-SA cells. Format: cell-based, human. Particulars: for pIC50: Homo sapiens, read-out: IC50 of drug-sensitive MES-SA cells (values in parenthesis). As for the experimental part:
(§1) Cells and Tissue Culture. Details of the development and characterization of the human cell line MES-SA and its MDR variant MES-SA/Dx5 (D×5), which were derived from sarcoma elements of a uterine mixed Mullerian tumor, are described in Harker and Sikic (1985) Cancer Research 45:3810-3815. MES-SA/DxP5002 (DxP) cells were derived from Dx5.05 cells (D×5 cells selected and maintained at a DOX concentration of 0.5 μM) by step-wise selection in the presence of increasing DOX concentrations (from 40 nM up to 0.5 μM) and a constant PSC 833 concentration at 2 μM over a one-year period. Monolayer cultures of MES-SA cells and its variants were grown in McCoy's medium (Irvine Scientific, Santa Ana, Calif.) supplemented with 10% newborn calf serum (Gibco, Grand Island, N.Y.), 2 mM L-glutamine, and antibiotics(100 U/ml penicillin, 100 μg/ml streptomycin).
(§2) Growth Inhibition Assay. Approximately 8000 cells per well were seeded in 96 well plates and incubated with or without drugs for 72 hr at 37° C. in an atmosphere of 5% CO2. Growth inhibition was evaluated by the MTT colorimetric assay in triplicate or quadruplicate as previously described. The absorbance was measured with a ThermoMax microplate reader (Molecular Devices, Menlo Park, Calif.). The IC50 (drug concentration resulting in 50% inhibition of MTT dye formation, compared to controls) was determined directly from semi-logarithmic dose-response curves. The doubling times of MES-SA, D×5, and D×P were determined as previously described.
(§3) Reversal of MDR by Modulators. […] The modulation ratio was obtained by comparing IC50 s in the presence and absence of modulators.

Data set [2] has as its system MES-SA/Dx5 (Dx5) cells. It counts as cell-based, human. On the procedure: as §1, §2, §3
The test system of data set [3] is MES-SA/DxP5002 (DxP) cells. Particulars: for Fold resistance / Level of resistance of DxP cells to the cytotoxin compared with parental Dx5 (in words): DxP cells; for Dx5/DxP, fold of resistance difference in DxP cells compared with parental Dx5 cells: DxP vs Dx5. As for the experimental part:
Cells and Tissue Culture. […] Monolayer cultures of MES-SA cells and its variants were grown in McCoy's medium (Irvine Scientific, Santa Ana, Calif.) supplemented with 10% newborn calf serum (Gibco, Grand Island, N.Y.), 2 mM L-glutamine, and antibiotics(100 U/ml penicillin, 100 μg/ml streptomycin).
Growth Inhibition Assay. Approximately 8000 cells per well were seeded in 96 well plates and incubated with or without drugs for 72 hr at 37° C. in an atmosphere of 5% CO2. Growth inhibition was evaluated by the MTT colorimetric assay in triplicate or quadruplicate as previously described. The absorbance was measured with a ThermoMax microplate reader (Molecular Devices, Menlo Park, Calif.). […] The doubling times of MES-SA, D×5, and D×P were determined as previously described.
as §3

Where [4] appears, read: MES-SA cells, no modulator, 72 hr MTT.
Where [5] appears, read: no modulator, relative to MES-SA.

pIC50: −log10 of the molar value. Where two headings read alike, the source gives them in different places. *1 amine or outer side, *2 acyl side, *3 side chain or, on linkers, in order; H or OH if unused. Where a SMILES comes first, the peptide text is derived from it. Bridges are numbered along the chain shown (N, C = ends). Roman numbers before positions name the chains, in order. [ ]: non-standard residue; d: D form. Actinocin(9to1) = Cc1c2oc3c(C)ccc(C(=O)[*:1])c3nc-2c(C(=O)[*:2])c(N)c1=O; NMeV = CN[C@H](C(=O)O)C(C)C; Sar = CNCC(=O)O

As a reminder, the pIC50 is the negative decadic logarithm of the IC50, by convention in mol/L.

Regarding `COc1cc(NS(C)(=O)=O)ccc1Nc1c2ccccc2nc2ccccc12` [Amsacrine], the negative logarithm of the IC50 (pIC50) in data set [1] (MES-SA cells, 72 hr MTT) is 7.00. Moreover, the “Fold resistance” value stood at 1 fold in data set [1] (setting [4]), 26 fold in data set [2] (setting [5]) and 2 fold in data set [3] (setting [5]). Also, the “Dx5/DxP, fold of resistance difference in DxP cells compared with parental Dx5 cells” value (shortened to “Dx5/DxP, fold of resistance difference”) in data set [3] is 13 fold.
Take `COc1cc2c(c(OC)c1OC)-c1ccc(OC)c(=O)cc1[C@@H](NC(C)=O)CC2` [Colchicine]: the “Level of resistance of DxP cells to the cytotoxin compared with parental Dx5 (in words)” value (“Level … compared with parental Dx5 (in words)” for short) in data set [3] is listed as “high levels of resistance”.
On to `Cc1c2oc3c(C)ccc(C(=O)N[C@@H]4C(=O)N[C@H](C(C)C)C(=O)N5CCC[C@H]5C(=O)N(C)CC(=O)N(C)[C@@H](C(C)C)C(=O)O[C@@H]4C)c3nc-2c(C(=O)N[C@@H]2C(=O)N[C@H](C(C)C)C(=O)N3CCC[C@H]3C(=O)N(C)CC(=O)N(C)[C@@H](C(C)C)C(=O)O[C@@H]2C)c(N)c1=O` [D actinomycin, dactinomycin] (I: T[dV]P[Sar][NMeV] / II: T[dV]P[Sar][NMeV]; ester I:1-I:C, II:1-II:C; linker I:N-II:N via Actinocin(9to1)), for which the negative-log IC50 (pIC50) in data set [1] (MES-SA, 72 h) is 9.52. Also, the “Fold resistance” value is listed as 1 fold in data set [1] (setting [4]), 183 fold in data set [2] (setting [5]) and 1 fold in data set [3] (setting [5]). The “Level … compared with parental Dx5 (in words)” value in data set [3] was “completely restored”. For the same compound, in data set [3], the “Dx5/DxP, fold of resistance difference” value is reported as 183 fold.
As for `COc1cccc2c1C(=O)c1c(O)c3c(c(O)c1C2=O)C[C@@](O)(C(C)=O)C[C@@H]3O[C@H]1C[C@H](N)[C@H](O)[C@H](C)O1` [Daunorubicin], the negative logarithm of the IC50 (pIC50) in data set [1] (MES-SA, 72 h) was 7.70. For the same compound, the “Fold resistance” value in data set [1] (setting [4]) is listed as 1 fold; in data set [2] (setting [5]) it was 75 fold; in data set [3] (setting [5]), 25 fold. For the same compound, in data set [3], the “Level … compared with parental Dx5 (in words)” value was “slightly decreased”. Also, the “Dx5/DxP, fold of resistance difference” value in data set [3] worked out at 3 fold.
On to `COc1cc([C@@H]2c3cc4c(cc3[C@@H](O[C@@H]3O[C@@H]5CO[C@@H](C)O[C@H]5[C@H](O)[C@H]3O)[C@H]3COC(=O)[C@H]23)OCO4)cc(OC)c1O` [Etoposide], for which the pIC50 in data set [1] (MES-SA cells, 72 hr MTT) was 6.30. The Fold resistance in data set [1] (MES-SA cells, +2 μM PSC 833) is given as 1 fold; in data set [1] (setting [4]), 1 fold; in data set [2] (+2 μM PSC 833), 1 fold; in data set [2] (setting [5]), 42 fold; in data set [3] (+2 μM PSC 833), 18 fold. The “Level … compared with parental Dx5 (in words)” value in data set [3] was “moderately decreased resistance”. For the same compound, the “Dx5/DxP, fold of resistance difference” value in data set [3] is given as 2 fold.
Turning to `CC(=O)O[C@H]1C(=O)[C@@]2(C)[C@H]([C@H](OC(=O)c3ccccc3)[C@]3(O)C[C@H](OC(=O)[C@H](O)[C@@H](NC(=O)c4ccccc4)c4ccccc4)C(C)=C1C3(C)C)[C@]1(OC(C)=O)CO[C@@H]1C[C@@H]2O` [Paclitaxel], the pIC50 in data set [1] (MES-SA cells, 72 hr MTT) is 9.00. Moreover, the Fold resistance in data set [1] (MES-SA cells, +2 μM PSC 833) is reported as 0.3-1 fold; in data set [1] (MES-SA cells, +3 μM cyclosporin A), 0.5-1 fold; in data set [1] (MES-SA cells, +6 μM Verapamil), 0.3-1 fold; in data set [1] (setting [4]) it was 1 fold; in data set [2] (+2 μM PSC 833) it was 1 fold; in data set [2] (+3 μM cyclosporin A) it was 13 fold. Further, the Fold resistance in data set [2] (+6 μM Verapamil) is 25 fold; in data set [2] (setting [5]), 175 fold; in data set [3] (+2 μM PSC 833), 5 fold; in data set [3] (+3 μM cyclosporin A), 38 fold; in data set [3] (+6 μM Verapamil), 44 fold; in data set [3] (setting [5]), 100 fold. The “Level … compared with parental Dx5 (in words)” value in data set [3] was “high levels of resistance”. Also, the “Dx5/DxP, fold of resistance difference” value in data set [3] was found to be 2 fold.
As to `COc1cc([C@@H]2c3cc4c(cc3[C@@H](O[C@@H]3O[C@@H]5CO[C@@H](c6cccs6)O[C@H]5[C@H](O)[C@H]3O)[C@H]3COC(=O)[C@H]23)OCO4)cc(OC)c1O` [Teniposide], the pIC50 in data set [1] (MES-SA cells, 72 hr MTT) was 7.00. Besides, the “Fold resistance” value in data set [1] (setting [4]) was determined as 1 fold; in data set [2] (setting [5]), 135 fold; in data set [3] (setting [5]), 53 fold. In data set [3], the “Level … compared with parental Dx5 (in words)” value is recorded as “moderately decreased resistance”. Also, the “Dx5/DxP, fold of resistance difference” value in data set [3] was 3 fold.
For the compound `CC[C@]1(O)C[C@H]2CN(CCc3c([nH]c4ccccc34)[C@@](C(=O)OC)(c3cc4c(cc3OC)N(C=O)[C@H]3[C@@](O)(C(=O)OC)[C@H](OC(C)=O)[C@]5(CC)C=CCN6CC[C@]43[C@@H]65)C2)C1` [Vincristine], in data set [1] (MES-SA cells, 72 hr MTT), the negative-log IC50 (pIC50) is 8.70. In addition, the Fold resistance was 0.7 fold in data set [1] (MES-SA cells, +2 μM PSC 833); 0.3-1 fold in data set [1] (MES-SA cells, +6 μM Verapamil); 1 fold in data set [1] (setting [4]); 1 fold in data set [2] (+2 μM PSC 833); 7 fold in data set [2] (+6 μM Verapamil); 199 fold in data set [2] (setting [5]). Besides, the results for the Fold resistance in data set [3] (+2 μM PSC 833), in data set [3] (+6 μM Verapamil) and in data set [3] (setting [5]) were 7 fold, 3 fold and 8 fold, respectively. Moreover, the “Dx5/DxP, fold of resistance difference” value in data set [3] is 25 fold.
As to `CCC1=C[C@@H]2CN(C1)Cc1c([nH]c3ccccc13)[C@@](C(=O)OC)(c1cc3c(cc1OC)N(C)[C@H]1[C@@](O)(C(=O)OC)[C@H](OC(C)=O)[C@]4(CC)C=CCN5CC[C@]31[C@@H]54)C2` [vinorelbine], the negative logarithm of the IC50 (pIC50) in data set [1] (MES-SA cells, 72 hr MTT) was 7.22. Also, the “Fold resistance” value is listed as 1 fold in data set [1] (setting [4]), 17 fold in data set [2] (setting [5]) and 2 fold in data set [3] (setting [5]). Besides, the “Dx5/DxP, fold of resistance difference” value in data set [3] stood at 9 fold.

These data come from US5830697A, “P-glycoprotein mutant resistant to cyclosporin modulation” (The Board of Trustees of the Leland Stanford Junior …, priority 1997, dated 1998).
